Test results published in paper PMC10320002, “In vitro antiproliferative, anti-inflammatory effects and molecular docking studies of natural compounds isolated from Sarcocephalus pobeguinii (Hua ex Pobég)” (Frontiers in Pharmacology, 2023).
Where “and” joins values, the source holds several entries; their conditions need not be identical. Equal entries are not always repeated.

Assays:
[1] = tested on: RAW 264.7 cells; test: MTT cell viability of LPS-stimulated RAW 264.7 cells; type: cell-based, murine; settings: 100 μg/mL
Method: Cancerous cell lines (MCF-7: human breast adenocarcinoma cells; HepG2: human hepatocellular carcinoma cells; Caco-2: human epithelial colorectal adenocarcinoma cells; A549: human epithelial lung adenocarcinoma cells), obtained from the American Type Culture Collection (ATCC) (Rockville, MD, United States of America), were cultured in Dulbecco’s Modified Eagle’s Medium (DMEM) high glucose (4.5 g/L) containing L-glutamine (4 mM) and sodium-pyruvate (Hyclone™) supplemented with 10% (v/v) fetal bovine serum (FBS) (Capricorn Scientific GmbH, South America), and incubated at 37°C with 5% CO2 in a humidified environment. African green monkey (Vero) kidney cells (also obtained from ATCC), a non-cancerous cell line, were grown in DMEM high glucose (4.5 g/L) containing L-glutamine (Lonza, Belgium) and supplemented with 5% FBS (Capricorn Scientific GmbH, South America) and 1% gentamicin (Virbac, RSA) in the same environment as cancer cells. […]
Nitric oxide (NO) production was evaluated in lipopolysaccharide (LPS)-stimulated RAW 264.7 cells by measuring the influence of tested compounds on the accumulation of nitrite, an indicator of NO in the cell supernatant, which can be detected with Griess reagent (Merck, Darmstadt, Germany). […] The microtiter plate was incubated for 10 min in the dark at room temperature, and the absorbance of the mixture was measured at 550 nm on a microplate reader (Synergy Multi-Mode Reader, BioTek, Winooski, United States of America). The quantity of nitrite was determined from a sodium nitrite standard curve, and the percentage of NO production was calculated based on the ability of each tested sample to inhibit nitric oxide production by LPS-stimulated RAW 264.7 cells compared to the control (cells treated with LPS without samples which was considered as 100% NO production). Additionally, the cell viability of treated cells was determined by using the MTT assay as previously described ([Mosmann, 1983]).

[2] = tested on: caspase-3/-7 activity in MCF-7 cells; test: Caspase-3/-7 luminescence assay (Caspase-Glo 3/7) in MCF-7 cells; type: cell-based, human; settings: 2×IC50, 18 h, vs cells treated with DMSO 0.5%
Method: The effect of the most bioactive compounds (2), (6) and (9) were used for the analysis of caspase-3 and caspase-7 activities on MCF-7 cells by using the Caspase-Glo® 3/7 kit (Promega, Germany). In fact, MCF-7 cells were seeded at a density of 10^4 cells per well on 96-well microtiter plates, and the plates were incubated overnight at 37 °C in a 5% CO2 humidified environment. […] Thereafter, 100 µL of Caspase-Glo® 3/7 reagent was added to each well, mixed and incubated in the dark for 1 h at room temperature. The luminescence was then measured on a microplate reader (Synergy Multi-Mode Reader, BioTek, Winooski, United States of America). The caspase-3/-7 activity was expressed as fold change of cells treated with 0.5% DMSO (control).

[3] = tested on: human normal skin fibroblasts (WS1) cell lines; design: method as in Gauthier et al., 2009; settings: ref Gauthier et al., 2009; cited from earlier work
[4] = tested on: human lung cancer cells A549; design: method as in Gauthier et al., 2009; Gao et al., 2016; settings: ref Gauthier et al., 2009; Gao et al., 2016; cited from earlier work
[5] = tested on: cancer cells (MCF-7, HepG2, Caco-2 and A549) and non-cancerous Vero cells; test: Time-dependent cytotoxic effect on cell growth (MTT); type: cell-based; settings: 10 μg/mL; 12, 24 and 48 h
Method: The cancerous and non-cancerous cells were seeded at a density of 10^4 cells per well in 96-well microtiter plates, and they were incubated overnight at 37°C with 5% CO2 in a 5% CO2 humidified environment in order to allow the attachment of cells at the bottom of the plates. Then, the cells were exposed to increasing concentrations of compounds (100, 50, 25, 10 and 5 μg/mL) dissolved in dimethyl sulfoxide (DMSO) and further diluted in fresh culture medium. In this assay, the final concentration of DMSO in the culture medium was 0.5% used as negative control while doxorubicin hydrochloride (Pfizer, United States of America) was used as a positive control. […] After 4 h of incubation, the medium was gently removed, and the formazan crystals were solubilized in 50 µL of DMSO. The absorbance was measured at 570 nm after shaking for 1 min on a microplate reader (Synergy Multi-Mode Reader, BioTek, Winooski, United States of America).

SMILES	cell viability of LPS-stimulated RAW 264.7 cells [1]	fold change in the activation of caspase-3/-7 activity [2]	IC50 [3] [µM]	IC50 [4]	time-dependent cytotoxic effect on cell growth [5]
C[C@@H]1CC[C@]2(C(=O)O)CC[C@]3(C(=O)O)C(=CCC4[C@@]5(C)CC[C@H](O[C@H]6O[C@H](C)[C@@H](O)[C@H](O)[C@H]6O)C(C)(C)C5CC[C@]43C)C2[C@H]1C (stereo partly drawn) [Compound 6, quinovic acid 3-O-[α-D-quinovopyranoside]]	significantly (p < 0.05) reduced the cell viability	up to 2 fold	–	–	–
CC1(C)CC[C@]2(C(=O)O)CC[C@]3(C)C(=CC[C@@H]4[C@@]5(C)CC[C@H](O)[C@@](C)(CO)[C@@H]5CC[C@]43C)[C@@H]2C1 [Compound 2, hederagenin]	significantly (p < 0.05) reduced the cell viability	up to 2 fold	77	26.3 µM and 39 µM	time-dependent manner
C[C@@H]1CC[C@]2(C(=O)O)CC[C@]3(C(=O)O)C(=CCC4[C@@]5(C)CC[C@H](O[C@@H]6O[C@H](C)[C@@H](O)[C@H](O)[C@H]6O)C(C)(C)C5CC[C@]43C)C2[C@H]1C (stereo partly drawn) [Compound 9, quinovic acid 3-O-[β-D-quinovopyranoside]]	significantly (p < 0.05) reduced the cell viability	–	–	–	–
